The values that follow come from US8188138B2, “Sulphonylpyrrole hydrochloride salts as histone deacetylases inhibitors” (4SC AG, priority 2005, dated 2012).

Read-outs that look alike come from different tables or passages of the source.

Data set [1] relates to HeLa cervical carcinoma cells. Description: Cellular cytotoxicity assay (Alamar Blue), HeLa. The class given is cell-based. To be noted: Homo sapiens, 72 h, range stated for the listed group. As for the experimental part: (§1) The anti-proliferative activity of the histone deacetylase inhibitory compounds as described herein, was evaluated using the following cell lines: HeLa and HeLa—KB (cervical carcinoma), H460 (non small cell lung cancer), A549 (non-small cell lung cancer), MCF7 (breast carcinoma), MCF10A (normal, non tumorigenic breast epithelial), MDA-MB468 (breast carcinoma), MDA-MB435 (breast carcinoma), MDA-MB231 (breast carcinoma), SKBR-3 (breast carcinoma), SKOV-3 (ovarial carcinoma), A-2780 (ovarial carcinoma), RKO (colon carcinoma), HCT-15 (colon carcinoma), HCT-116 (colon carcinoma), PC3 (prostate carcinoma), BPH1 (benign prostate hyperplasia), AsPC1 (pancreatic carcinoma), Cal27 (tongue carcinoma), A-431 (vulva carcinoma), HeclA (endometrial carcinoma), Saos-2 (osteosarcoma), U87MG (glioblastoma), WM266-4 (melanoma), K562 (chronic myeloid carcinoma), EOL1 (acute hypereosinophilic myeloid leukemia), CCRF-CEM and CCRF-CEM VCR1000 (acute lymphoblastic leukemia sensitive and resistant towards Vincristine). For quantification of cellular proliferation/living cells the Alamar Blue (Resazurin) cell viability assay was applied (O'Brien et al. Eur J Biochem 267, 5421-5426, 2000). In this assay Resazurin is reduced to the fluorescent resorufin by cellular dehydrogenase activity, correlating with viable, proliferating cells. The examples were dissolved as 20 mM solutions in dimethylsulfoxide (DMSO) and subsequently diluted in semi-logarithmic steps. Cell lines were seeded at respective density into 96 well flat bottom plates in a volume of 200 μl per well. 24 hours after seeding 1 μl each of the compound dilutions were added into each well of the 96 well plate. Each compound dilution was tested as quadruplicates. Wells containing untreated control cells were filled with 200 μl DMEM medium containing 0.5% v:v DMSO. The cells were then incubated with the substances for 72 hours at 37° C. in a humidified atmosphere containing 5% carbon dioxide. To determine the viability of the cells, 20 μl of an Resazurin solution (Sigma; 90 mg/l) were added. After 4 hours incubation at 37° C. the fluorescence was measured at an extinction of 544 nm and an emission of 590 nm. For the calculation of the cell viability the emission value from untreated cells was set as 100% viability and the emission rates of treated cells were set in relation to the values of untreated cells. Viabilities were expressed as % values. The corresponding IC50 values of the compounds for cytotoxic activity are determined from the concentration-effect curves by means of non-linear regression.
In general terms: The colour change of resazurin is a common sign of viable cells or microbes.

For data set [2], the system named is MDA-MB468 breast cancer cells. Description: Breast cancer cell differentiation assay (Nile Red, flow cytometry). To be noted: 24 h; for Neutral & phospholipids (%): differentiated cells; for Phospholipids (%): undifferentiated cells. The class given is cell-based. As to the method: For quantification of MDA-MB468 breast cancer cell differentiation (described by Munster et al. Canc. Res. 61(23), pp 8492, 2001), 1× E6 cells were seeded in 10 cm cell culture dishes and, after cultivation for 24 h, treated with HDI for further 24 h. Finally, cells were collected by trypsination, washed twice with PBS and resuspended in 1 ml of staining solution ([…] Nile Red in PBS). After incubation for at least 5 min at room temperature, cells were analysed by flow cytometry on a FACS Calibur device (Ex 488 nm, Em. at 530 nm/FL-1 and >630 nm/FL-3). From respective histograms the percentage of cells with fluorescence at 650 nm (phospholipids) and 530 nm+650 nm (phospho- and neutral lipids) were calculated. For microscopic analysis, MDA-MB468 cells were cultivated on two-well chamber slides, treated with test compound for 24 h, fixed with 1.5 vol % glutaraldehyde/PBS and finally treated with staining solution. After washing with PBS, cells were analysed by fluorescence microscopy.
The percentage of differentiated cells with neutral and phospholipids as well as undifferentiated cells with phospholipids only are summarized in the table 5.
(A flow cytometer gives signals particle by particle.)

In data set [3] the test system is RKO colon carcinoma cells. Description: Cell-cycle dependent cytotoxicity, RKO exop21 cell system. The class given is cell-based. To be noted: Homo sapiens, 72 h, range stated for the listed group. As to the method:
For determination of cell-cycle dependent cytotoxicity, the RKO exop21 cell system was applied (Schmidt et al. Oncogene 19: 2423-2429, 2000). Briefly, RKO cells with/without p21^waf1 expression (2×10^4 cells/well induced, 6×10^3 cells/well not induced) were treated with the examples for 72 h and metabolic activity quantified as described before. The expression of p21^waf1 was induced by treatment with Pronasterone A, causing a complete proliferation arrest of RKO cells in the G1 and G2 phases of the cell division cycle.

In data set [4] the test system is A549 cell line. The data set is described as follows: Combination experiment with Trail in A549. The data set is classed as cell-based. To be noted: example at about its IC50 combined with Trail. As for the experimental part: A549 non-small cell lung cancer, MDA-MB468 breast cancer and […] colorectal cancer cell lines were pretreated with the examples for 4 h before adding the chemotherapeutic agents or Trail and further incubation for 72 h total. The IC50 values of these combinations were determined from concentration-effect curves and compared to IC50 values of cell treated with the anti-cancer agent only.

Data set [5] has as its system broad selection of non-malignant cell lines and fully transformed malignant cancer cell lines. The data set is described as follows: Anti-proliferative activity across cell line panel (Alamar Blue). To be noted: mean over non-malignant and malignant cell lines. The data set is classed as cell-based. As for the experimental part:
as §1

With `O=C(/C=C/c1ccn(S(=O)(=O)c2ccc(-n3cccn3)cc2)c1)NO` [Compound 25, (E)-N-Hydroxy-3-[1-(4-pyrazol-1-yl-benzenesulfonyl)-1H-pyrrol-3-yl]-acrylamide], the melting point – broadly, the temperature of the solid-liquid transition – was 160.7 to 166.6 °C. In addition, the IC50 (in general, the concentration that inhibits the measured activity by half) in data set [1] is 0.07 to 5 µM.

For the compound `CN(CCc1cc2ccccc2[nH]1)Cc1ccc(S(=O)(=O)n2ccc(/C=C/C(=O)NO)c2)cc1` [Compound 9, (E)-N-Hydroxy-3-(1-[4-(([2-(1H-indol-2-yl)-ethyl]-methyl-amino)-methyl)-benzenesulfonyl]-1H-pyrrol-3-yl)-acrylamide], the “Neutral & phospholipids (%)” value in data set [2] (3 μM) was found to be 71.2%; in data set [2] (6 μM), 64.6%. Moreover, the “Phospholipids (%)” value in data set [2] (3 μM) is recorded as 25.3%; in data set [2] (6 μM), 27.9%. Further, the IC50 is 0.07 to 5 µM in data set [1]; 0.45 to 15 µM in data set [3] (arrested RKO cells, p21waf1 expressed, read-out: RKO arrested (p21^waf1 expressed) IC50); 0.15 to 5.1 µM in data set [3] (proliferating RKO cells, read-out: RKO proliferating IC50); 3.7 µM in data set [5]. For the same compound, in data set [4], the “Effect of combination with Trail” value is on record as “synergism is highly likely”.

For `O=C(/C=C/c1ccn(S(=O)(=O)c2ccc(CN3CCOCC3)cc2)c1)NO` [Compound 27, (E)-N-Hydroxy-3-[1-(4-morpholin-4-ylmethyl-benzenesulfonyl)-1H-pyrrol-3-yl]-acrylamide], the melting point was 168 to 170 °C. Also, the IC50 in data set [1] was 0.07 to 5 µM.

For the compound `CC(C)CNCc1ccc(S(=O)(=O)n2ccc(/C=C/C(=O)NO)c2)cc1` [Compound 14, (E)-N-Hydroxy-3-{1-[4-(isobutylamino-methyl)-benzenesulfonyl]-1H-pyrrol-3-yl}-acrylamide], in data set [1], the IC50 lay within 0.07 to 5 µM.

`O=C(/C=C/c1ccn(S(=O)(=O)c2ccc(CN(CCO)CCc3cc4ccccc4[nH]3)cc2)c1)NO` [Compound 28, (E)-N-Hydroxy-3-{1-[4-({(2-hydroxy-ethyl)-[2-(1H-indol-2-yl)-ethyl]-amino}-methyl)-benzenesulfonyl]-1H-pyrrol-3-yl}-acrylamide] displayed an IC50 in data set [1] of 0.07 to 5 µM.

For the compound `NCc1ccc(S(=O)(=O)n2ccc(/C=C/C(=O)NO)c2)cc1` [Compound 17, (E)-3-[1-(4-Aminomethyl-benzenesulfonyl)-1H-pyrrol-3-yl]-N-hydroxy-acrylamide], the melting point was 227 to 228.6 °C. Further, in data set [1], the IC50 lay in the range of 0.07 to 5 µM.

Consider `O=C(/C=C/c1ccn(S(=O)(=O)c2ccc(CNCc3cccnc3)cc2)c1)NO` [Compound 11, (E)-N-Hydroxy-3-[1-(4-{[(pyridin-3-ylmethyl)-amino]-methyl}-benzenesulfonyl)-1H-pyrrol-3-yl]-acrylamide], for which, in data set [1], the IC50 is 0.07 to 5 µM.

In data set [1], `O=C(/C=C/c1ccn(S(=O)(=O)c2ccc(CNCc3ccccc3)cc2)c1)NO` [Compound 13, (E)-3-{1-[4-(Benzylamino-methyl)-benzenesulfonyl]-1H-pyrrol-3-yl}-N-hydroxy-acrylamide] returned an IC50 of 0.07 to 5 µM.

In turn, `Nc1ccccc1NC(=O)/C=C/c1ccn(S(=O)(=O)c2ccc(-c3cccnc3)cc2)c1` [Compound 21, (E)-N-(2-Amino-phenyl)-3-[1-(4-pyridin-3-yl-benzenesulfonyl)-1H-pyrrol-3-yl]-acrylamide] yielded a melting point of 199.7 to 202.3 °C. In data set [1], the IC50 was in the range of 0.07 to 5 µM.

On to `Nc1ccccc1NC(=O)/C=C/c1ccn(S(=O)(=O)c2ccc(-c3ccncc3)cc2)c1` [Compound 20, (E)-N-(2-Amino-phenyl)-3-[1-(4-pyridin-4-yl-benzenesulfonyl)-1H-pyrrol-3-yl]-acrylamide], for which the melting point fell in the range of 244.2 to 246.5 °C. The compound further yielded an IC50 in data set [1] of 0.07 to 5 µM.

In turn, `O=C(/C=C/c1ccn(S(=O)(=O)c2ccc(-c3cn[nH]c3)cc2)c1)NO` [Compound 19, (E)-N-Hydroxy-3-[1-[4-(1H-pyrazol-4-yl)-benzenesulfonyl]-1H-pyrrol-3-yl]acrylamide] came in with an IC50 in data set [1] of 0.07 to 5 µM.

For `O=C(/C=C/c1ccn(S(=O)(=O)c2ccc(-c3ccncc3)cc2)c1)NO` [Compound 18, (E)-N-Hydroxy-3-[1-(4-pyridin-4-yl-benzenesulfonyl)-1H-pyrrol-3-yl]-acrylamide], the melting point was in the range of 219.3 to 221.4 °C. In addition, the IC50 in data set [1] lay in the range of 0.07 to 5 µM.

`O=C(/C=C/c1ccn(S(=O)(=O)c2ccc(CNCc3ccc4[nH]ccc4c3)cc2)c1)NO` [Compound 15, (E)-N-Hydroxy-3-[1-(4-{[(1H-indol-5-ylmethyl)-amino]-methyl}-benzenesulfonyl)-1H-pyrrol-3-yl]-acrylamide] displayed an IC50 in data set [1] of 0.07 to 5 µM.

In turn, `O=C(/C=C/c1ccn(S(=O)(=O)c2cccc(-c3ccccc3)c2)c1)NO` [Compound 23, (E)-3-[1-(Biphenyl-3-sulfonyl)-1H-pyrrol-3-yl]-N-hydroxy-acrylamide] returned a melting point of 114 to 159.4 °C. In addition, in data set [1], the IC50 is 0.07 to 5 µM.

`O=C(/C=C/c1ccn(S(=O)(=O)c2ccc(CNCc3c[nH]c4ccccc34)cc2)c1)NO` [Compound 12, (E)-N-Hydroxy-3-[1-(4-{[(1H-indol-3-ylmethyl)-amino]-methyl}-benzenesulfonyl)-1H-pyrrol-3-yl]-acrylamide] yielded an IC50 in data set [1] of 0.07 to 5 µM.

Regarding `CN(C)c1ccc(S(=O)(=O)n2ccc(/C=C/C(=O)Nc3ccccc3N)c2)cc1` [Compound 8, (E)-N-(2-Amino-phenyl)-3-[1-(4-dimethylamino-benzenesulfonyl)-1H-pyrrol-3-yl]-acrylamide], in data set [1], the IC50 was in the range of 0.8 to 21.6 µM.

On to `O=C(/C=C/c1ccn(S(=O)(=O)c2ccc(CNCc3ccncc3)cc2)c1)NO` [Compound 16, (E)-N-Hydroxy-3-[1-(4-{[(pyridin-4-ylmethyl)-amino]-methyl}-benzenesulfonyl)-1H-pyrrol-3-yl]-acrylamide], for which the IC50 in data set [1] was in the range of 0.07 to 5 µM.

`Nc1ccccc1NC(=O)/C=C/c1ccn(S(=O)(=O)c2ccc(-c3ccccn3)s2)c1` [Compound 26, (E)-N-(2-Amino-phenyl)-3-[1-(5-pyridin-2-yl-thiophene-2-sulfonyl)-1H-pyrrol-3-yl]-acrylamide] registered a melting point of 171.3 to 174.7 °C. For the same compound, the IC50 in data set [1] is 0.07 to 5 µM.

In turn, `Nc1ccccc1NC(=O)/C=C/c1ccn(S(=O)(=O)c2ccc(-c3cn[nH]c3)cc2)c1` [Compound 22, (E)-N-(2-Amino-phenyl)-3-{1-[4-(1H-pyrazol-4-yl)-benzenesulfonyl]-1H-pyrrol-3-yl}-acrylamide] yielded a melting point of 232.3 to 240.9 °C. Moreover, the IC50 in data set [1] lay in the range of 0.07 to 5 µM.
